Reference: patent US10494337B2, “(20S)-1-α,25-dihydroxy-24,24-difluoro-19-nor-vitamin D3 analogs and their pharmaceutical uses” (Wisconsin Alumni Research Foundation, priority 2015, dated 2019)

Key:
[1] = test system: 24-hydroxylase gene reporter plasmid in rat osteosarcoma cells; experiment: 24-hydroxylase (24-OHase) transcription, luciferase reporter; settings: for EC50: Rattus norvegicus, read-out: 24OHase transcription ED50; for 24OHase transcription Ratio: average ratio of the 1α,25-(OH)2D3 ED50 to the ED50 for the analogue
Protocol: (§1) The experiments were carried out in duplicate on two different occasions. […] The binding ratio is the average ratio of the 1□,25-(OH)2D3 Ki to the Ki for the analogue. ^bInduction of differentiation of HL-60 promyelocytes to monocytes by 1□,25-(OH)2D3 (1) and the synthesized vitamin D analogues. Differentiation state was determined by measuring the percentage of cells reducing nitro blue tetrazolium (NBT). The experiment was repeated in duplicate two times. […] The differentiation activity ratio is the average ratio of the 1□,25-(OH)2D3 ED50 to the ED50 for the analogue. ^cTranscriptional assay in rat osteosarcoma cells stably transfected with a 24-hydroxylase gene reporter plasmid. […] The luciferase activity ratio is the average ratio of the 1□,25-(OH)2D3 ED50 to the ED50 for the analogue.

HL-60 promyelocytes = experiment: HL-60 differentiation (NBT reduction); settings: for HL-60 differentiation ratio: average ratio of the 1α,25-(OH)2D3 ED50 to the ED50 for the analogue; for HL-60 differentiation activity, in words: compared with 1α,25-(OH)2D3
Protocol: as §1

[2] = molecular target: T1, full-length recombinant rat vitamin D receptor (Rattus norvegicus, UniProt P13053); experiment: Competitive VDR binding; settings: for VDR binding ratio: average ratio of the 1α,25-(OH)2D3 Ki to the Ki for the analogue
T1 sequence (P13053 1-423): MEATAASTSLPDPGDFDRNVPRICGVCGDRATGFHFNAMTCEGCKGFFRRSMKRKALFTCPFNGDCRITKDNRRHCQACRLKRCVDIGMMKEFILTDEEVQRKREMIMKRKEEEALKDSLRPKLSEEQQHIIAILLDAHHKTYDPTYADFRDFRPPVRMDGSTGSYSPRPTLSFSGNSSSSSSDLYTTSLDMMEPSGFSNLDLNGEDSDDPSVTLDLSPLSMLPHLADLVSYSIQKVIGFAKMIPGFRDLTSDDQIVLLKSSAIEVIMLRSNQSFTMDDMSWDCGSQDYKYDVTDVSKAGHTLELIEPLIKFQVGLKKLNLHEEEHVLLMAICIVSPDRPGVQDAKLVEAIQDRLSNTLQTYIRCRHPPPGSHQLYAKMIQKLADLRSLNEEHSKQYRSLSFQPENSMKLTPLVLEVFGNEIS
Protocol: as §1

[3] = Bone calcium mobilization in vivo (serum calcium); design: species or system Sprague-Dawley rats; settings: rats on 0.02% Ca diet, four consecutive intraperitoneal doses, serum calcium 24 hours after the last dose
Source text: 2. In vivo Studies. Bone calcium mobilization and intestinal calcium transport.
Male, weanling Sprague-Dawley rats were purchased from Harlan (Indianapolis, Ind.). The animals were group housed and placed on Diet 11 (0.47% Ca)+AEK oil for one week followed by Diet 11 (0.02% Ca)+AEK oil for 3 weeks. The rats were then switched to a diet containing 0.47% Ca^26 for one week followed by two weeks on a diet containing 0.02% Ca. Dose administration began during the last week on 0.02% Ca diet. Four consecutive intraperitoneal doses were given approximately 24 hours apart. Twenty-four hours after the last dose, blood was collected from the severed neck and the concentration of serum calcium determined as a measure of bone calcium mobilization. The first 10 cm of the intestine was also collected for the intestinal calcium transport analysis using the everted gut sac method.^25

[4] = background statement in the discussion, compared with 1,25-(OH)2D3; cited from earlier work
[5] = background statement in the discussion; cited from earlier work

Row | SMILES | EC50 [1] | Ki [2] | VDR binding ratio [2] | melting point | HL-60 differentiation ratio (HL-60 promyelocytes) | 24OHase transcription Ratio [1] | 24-OHase (CYP24A1) transcriptional activity, in words ([1]; compared with 1α,25-(OH)2D3 or 2MD) | bone calcium mobilization activity, in words [3] | bone calcium mobilization activity, in words ([3]; listed as 24,24-difluoro substituted 19-nor-20S-2-methylene-1α,25-(OH)2D3) | HL-60 differentiation activity, in words (HL-60 promyelocytes) | VDR binding, in words ([2]; compared with 1α,25-(OH)2D3) | intestinal calcium absorption of 2MD, in words [4] | bone calcium mobilizing activity of 2MD, in words [5]
1 | C=C1/C(=C\C=C2/CCC[C@@]3(C)C2CCC3[C@H](C)CCCC(C)(C)O)C[C@@H](O)C[C@@H]1O (stereo partly drawn) [Compound 1, 1α,25-dihydroxyvitamin D3, reference compound] | 0.2 nM |  |  |  |  |  |  |  |  |  |  |  | 
2 | C=C1[C@H](O)CC(=C/C=C2\CCC[C@@]3(C)C2CCC3[C@@H](C)CCC(F)(F)C(C)(C)O)C[C@H]1O (stereo partly drawn) [Compound 4, (20S)-1α,25-Dihydroxy-24,24-difluoro-2-methylene-19-norvitamin D3] | 0.02 nM | 0.03 nM | 1.3 |  | 100 | 10 | almost as active as 2MD | highest bone mobilization activity | bone calcium mobilization activity rivaling 2-methylene-19-nor-(20S)-1,25-dihydroxyvitamin D3 or 2MD |  |  |  | 
3 | C[C@@H](CCC(F)(F)C(C)(C)O)C1CCC2/C(=C/C=C3C[C@@H](O)C[C@H](O)C3)CCC[C@@]21C (stereo partly drawn) [Compound 6, (20S)-1α,25-Dihydroxy-24,24-difluoro-19-norvitamin D3] | 0.04 nM | 0.03 nM | 1.3 |  | 50 | 5 |  | highest bone mobilization activity |  |  |  |  | 
4 | C[C@H](CCC(F)(F)C(C)(C)O)C1CCC2/C(=C/C=C3C[C@@H](O)C[C@H](O)C3)CCC[C@@]21C (stereo partly drawn) [Compound 5, (20R)-1α,25-Dihydroxy-24,24-difluoro-19-norvitamin D3] | 0.04 nM | 0.02 nM | 2 | 182 to 183 °C | 60 | 5 |  | not as potent in vivo as analogues 4 and 6 |  | high potency | slightly more effective than 1α,25-(OH)2D3 |  | 

More lines, main results first:

Row | EC50 [1] | Ki [2] | VDR binding ratio [2] | melting point | SMILES | HL-60 differentiation ratio (HL-60 promyelocytes) | 24OHase transcription Ratio [1] | 24-OHase (CYP24A1) transcriptional activity, in words ([1]; compared with 1α,25-(OH)2D3 or 2MD) | bone calcium mobilization activity, in words [3] | bone calcium mobilization activity, in words ([3]; listed as 24,24-difluoro substituted 19-nor-20S-2-methylene-1α,25-(OH)2D3) | HL-60 differentiation activity, in words (HL-60 promyelocytes) | VDR binding, in words ([2]; compared with 1α,25-(OH)2D3) | intestinal calcium absorption of 2MD, in words [4] | bone calcium mobilizing activity of 2MD, in words [5]
5 | 0.01 nM | 0.04 nM | 1 | 163 to 164 °C | C=C1[C@H](O)CC(=C/C=C2\CCC[C@@]3(C)C2CCC3[C@H](C)CCC(F)(F)C(C)(C)O)C[C@H]1O (stereo partly drawn) [Compound 3, (20R)-1α,25-Dihydroxy-24,24-difluoro-2-methylene-19-norvitamin D3] | 30 | 20 |  | not as potent in vivo as analogues 4 and 6 |  | high potency |  |  | 
6 | 0.007 nM | 0.03 nM | 1.3 |  | C=C1[C@H](O)CC(=C/C=C2\CCC[C@@]3(C)C2CCC3[C@@H](C)CCCC(C)(C)O)C[C@H]1O (stereo partly drawn) [Compound 2, 2-methylene-(20S)-1α,25-dihydroxy-19-nor vitamin D3, reference compound] | 150 | 29 |  |  |  |  |  | not increased above that found with 1,25-(OH)2D3 | greatly increased bone calcium mobilizing activity
